From article PMC11851430, “Workflow for E3 Ligase Ligand Validation for PROTAC Development” (ACS Chemical Biology, 2025)

What was measured:
STK39A = target: T1, STK39A (Homo sapiens, UniProt Q9UEW8); test: DSF assay; format: binding; details: 20 µM compound
T1 construct: purchased in-house DSF panel (SGC-style construct names; the trailing A/B is a construct suffix)

Jurkat cells = test: CellTiterGlo cell viability assay; format: cell-based, human; details: 24 h; for IC50: Homo sapiens, mean of triplicates, ^b/^c values estimated, read-out: IC50±sd/μM (cell viability)
Method in brief: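 Jurkat cells treated with compound titrations; viability read by CellTiter-Glo 2.0 luminescence after 10 min at room temperature, fitted to a four-parameter curve. Proteomics samples lysed in 2% SDS, 50 mM Tris pH 8.5, TCEP and CAA, sonicated, then analysed by label-free quantitation.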

STK17A = target: T2, STK17A (Homo sapiens, UniProt Q9UEE5); test: DSF assay; format: binding; details: 20 µM compound
T2 construct: purchased in-house DSF panel (SGC-style construct names; the trailing A/B is a construct suffix)
T2 sequence (Q9UEE5 61-321): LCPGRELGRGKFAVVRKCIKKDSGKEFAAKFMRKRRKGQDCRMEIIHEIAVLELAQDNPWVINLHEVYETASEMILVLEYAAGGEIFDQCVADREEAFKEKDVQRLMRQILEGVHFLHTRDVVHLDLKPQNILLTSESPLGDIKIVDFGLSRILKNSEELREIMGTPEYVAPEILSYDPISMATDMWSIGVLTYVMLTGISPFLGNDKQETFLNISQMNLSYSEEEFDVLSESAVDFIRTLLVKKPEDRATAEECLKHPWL

RIOK2A = target: T3, RIOK2A (Homo sapiens, UniProt Q9BVS4); test: DSF assay; format: binding; details: 20 µM compound
T3 construct: purchased in-house DSF panel (SGC-style construct names; the trailing A/B is a construct suffix)

[1] = target: T4, kinase protein levels in MCF-7 cells (Homo sapiens, UniProt A0A096LP01); test: TMT-labeled quantitative proteomics; format: cell-based
T4 construct: endogenous in cells; host or cells: MCF-7
Experimental: (§1) 50 µl of SDS Lysis Buffer (2% SDS, 50 mM TRIS pH 8.5, 10 mM TCEP, 40 mM CAA) was added to each sample. Cells were transferred into low binding reaction tubes (Eppendorf:
(§2) Methanol/Chloroform Precipitation. 200 µl of methanol and 50 µl of chloroform were added to each sample reaction tube and mixed via vortex. 150 µl of milliQ-H2O were added and samples were vortexed further. Samples were centrifuged for 5 minutes at 15000 g and the aqueous layer above the interphase was removed. 150 µl of methanol was added, samples were vortexed and centrifuged for 10 minutes at 15000 g to precipitate the pellet. The aforementioned wash procedure was repeated twice before transferring the pellet to a new low bind reaction tube in which it was allowed to dry for 5 minutes.
(§3) Dissolving the Protein Pellet and Protein Quantification. 50 µl of digestion buffer (8 M Urea, 50 mM TRIS pH 8) was added to each sample before vortexing and shaking at 750 rpm at room temperature for 10 minutes to solubilize the pellet. Protein quantification via PierceTM […]
(§4) Protein Digestion. Samples were diluted 1:2 with 50 mM TRIS pH 8.5 to reach a final concentration of 4 M Urea. Lys-C (Promega: VA1170) was added at a 1:100 enzyme/substrate ratio. Samples were agitated at 550 rpm and 37 °C for 3 h. Samples were further diluted with 50 mM TRIS pH 8.5 to a final concentration of 1 M Urea and Trypsin (Promega: V5280) was added at a 1:100 enzyme/substrate ratio. Samples were agitated overnight at 550 rpm and 37 °C. The digestion was stopped the following day via addition of TFA to a final concentration […]
(§5) Solid Phase Extraction via C18 Cartridges. Sep-Pak C18 Cartridges (Waters: WAT054955) were used for solid phase extraction of digested peptides. For preconditioning of C18 cartridges, 1 mL of methanol was added to each column followed by 1 mL of solution B (0.1% formic acid, 80% acetonitrile) and 1 mL of solution A (0.1% formic acid, ddH2O) twice. Samples […]
(§6) were loaded to their respective columns and once samples had passed, columns were washed twice with solution A to remove unwanted components from the loading step. Elution of samples was carried out via introduction of 40% and 60% acetonitrile steps. Samples were dried and snap frozen in liquid nitrogen.
(§7) TMT-Labeling. Desalted peptides were dried and resuspended in TMT-labeling buffer (200 mM EPPS pH 8.2, 20% acetonitrile). 10 μg of peptides per condition were subjected to TMT labeling with 1:2.5 peptide TMT ratio (w/w) for 1 h at room temperature. The labeling reaction was quenched by addition of hydroxylamine to a final concentration of 0.5% and incubation at room temperature for 15 minutes. Successful TMT labeling was verified by mixing equimolar ratios of peptides and subjecting the mix to single shot LC-MS/MS analysis. For high pH reversed phase fractionation on a Dionex analytical HPLC, 50 µg of pooled and purified TMT labelled samples were resuspended in 10 mM ammonium-bicarbonate (ABC), 5% acetonitrile, and separated on a 250 mm long C18 column (Aeris Peptide XB-C18, 4.6 mm ID, 2.6 µm particle size; Phenomenex) using a multistep gradient from 100% solvent A (5% acetonitrile, 10 mM ABC in water) to 60% solvent B (90% acetonitrile, 10 mM ABC in water) over 70 minutes. Eluting peptides were collected every 45 seconds into a total of 96 fractions, which were cross-concatenated into 24 fractions and dried in a vacuum concentrator and resuspended in 3% acetonitrile with 0.1% TFA for LC-MS analysis.
(§8) Mass spectrometry data acquisition. Tryptic peptides were analyzed on an Orbitrap Lumos coupled to an easy nLC 1200 (ThermoFisher Scientific) using a 35 cm long, 75 µm ID fused-silica column packed in house with 1.9 µm C18 particles (Reprosil pur, Dr. Maisch), and kept at 50 °C using an integrated column oven (Sonation). HPLC solvents consisted of 0.1% formic acid in water (buffer A) and 0.1% formic acid and 80% acetonitrile in water (buffer B). Assuming

[2] = tested on: kinase protein levels in MCF-7 cells; test: TMT-labeled quantitative proteomics; format: cell-based, human; details: for kinase degradation: MCF-7 cells, 6 h
Experimental: as §1, §2, §3, §4, §5, §6, §7, §8

VHL = VHL (Homo sapiens, UniProt P40337); test: cell-based; design: full-length, NanoLuc fusion (Promega N2741); species or system HEK293T; NanoBRET VHL tracer displacement in permeabilized cells, NanoLuc-VHL fusion; details: permeabilized cells; read-out: VHL permeabilized (IC50±sd)/µM
[3] = protein LINC00493, MCF7, 2.5 µM, set3
[4] = protein LINC00493, MCF, 0.25µM, set4
[5] = protein SMIM26, MCF7, 1 µM, set2
[6] = protein NBPF19;NBPF8;NBPF10;NBPF15;NBPF26;NBPF14;NBPF1;NBPF12, MCF, 0.25µM, set4
[7] = protein NBPF19;NBPF8;NBPF26;NBPF14;NBPF12;NBPF10;NBPF15;NBPF1, MCF7, 2.5 µM, set3
[8] = protein NUDT4;NUDT11;NUDT10, MCF, 0.25µM, set4
[9] = protein UQCRHL;UQCRH, MCF, 0.25µM, set4
[10] = protein LINC00493, MCF7, 1 µM, set5
[11] = protein NBPF19;NBPF15;NBPF8;NBPF10;NBPF26;NBPF14, MCF7, 1 µM, set1.1
[12] = protein NUDT4, MCF7, 1 µM, set1.1

T4 sequence (A0A096LP01 whole entry): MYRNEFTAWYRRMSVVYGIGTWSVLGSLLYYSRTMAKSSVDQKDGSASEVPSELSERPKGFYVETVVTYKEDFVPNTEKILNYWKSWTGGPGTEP
Sequence of VHL (P40337 whole entry, the tested form may be a part): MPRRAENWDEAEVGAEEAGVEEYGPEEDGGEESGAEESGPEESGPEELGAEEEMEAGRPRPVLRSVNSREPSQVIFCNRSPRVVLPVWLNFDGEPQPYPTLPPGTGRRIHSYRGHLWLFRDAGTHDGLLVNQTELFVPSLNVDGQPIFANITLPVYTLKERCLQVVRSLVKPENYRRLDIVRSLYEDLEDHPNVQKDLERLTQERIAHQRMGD
T3 sequence (Q9BVS4 whole entry): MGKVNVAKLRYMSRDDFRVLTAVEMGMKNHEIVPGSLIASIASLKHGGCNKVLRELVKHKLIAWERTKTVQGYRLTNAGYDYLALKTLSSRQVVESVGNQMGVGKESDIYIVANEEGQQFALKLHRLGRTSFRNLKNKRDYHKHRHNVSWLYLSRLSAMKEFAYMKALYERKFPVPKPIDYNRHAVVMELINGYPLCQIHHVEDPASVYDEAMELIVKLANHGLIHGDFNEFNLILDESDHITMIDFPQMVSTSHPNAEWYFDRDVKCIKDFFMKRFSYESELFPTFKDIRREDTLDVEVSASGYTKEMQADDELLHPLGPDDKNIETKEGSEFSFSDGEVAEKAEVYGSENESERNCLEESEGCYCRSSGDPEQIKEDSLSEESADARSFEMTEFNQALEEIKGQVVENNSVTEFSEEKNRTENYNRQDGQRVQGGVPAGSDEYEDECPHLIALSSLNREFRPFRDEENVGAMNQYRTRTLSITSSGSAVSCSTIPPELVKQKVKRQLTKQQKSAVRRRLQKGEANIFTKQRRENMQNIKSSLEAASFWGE

Compound: CC(C)(C)OC(=O)NCCCOCCOCCOCCCNC(=O)c1cc(Nc2cc(C3CC3)[nH]n2)nc(Nc2ccc(CC#N)cc2)n1 [5-L]
- ΔTm at 20 µM (STK39A): 6.54 °C
- IC50 (Jurkat cells): 5.7 ± 1.5 µM
- ΔTm at 20 µM (STK17A): 5.46 °C
- ΔTm at 20 µM (RIOK2A): 5.03 °C

Compound: CC(=O)N[C@H](C(=O)N1C[C@H](O)C[C@H]1C(=O)NCc1ccc(-c2scnc2C)cc1OCCOCCOCCOCCOCCC(=O)N1CCN(c2ccc(Nc3ncc(Cl)c(Nc4ccccc4C(N)=O)n3)cc2)CC1)C(C)(C)C [6-e]
- P.Value (compound/DMSO) [1, 3]: 0.7735
- log2FC (compound/DMSO) [1, 3]: 0.04253
- P.Value (compound/DMSO) [1, 4]: 0.8916
- log2FC (compound/DMSO) [1, 4]: -0.008166
- P.Value (compound/DMSO) [1, 5]: 0.2313
- log2FC (compound/DMSO) [1, 5]: -0.1331
- kinase degradation ([2]; 0.25 μM): no significantly degraded kinases were detected
- kinase degradation ([2]; 1 μM): did not result in significant degradation of any kinase
- kinase degradation ([2]; 2.5 μM): no significantly degraded kinases were detected
- log2FC (compound/DMSO) [2, 6]: 0.2043
- log2FC (compound/DMSO) [2, 7]: 0.155
- log2FC (compound/DMSO) [2, 8]: -0.054
- log2FC (compound/DMSO) [2, 9]: -0.5234
- effect on cell viability (cytotoxicity) (Jurkat cells): no cytotoxicity was observed
- IC50 (VHL): 1.4 ± 0.174 µM

Compound: Cc1ncsc1-c1ccc(CNC(=O)[C@@H]2C[C@@H](O)CN2C(=O)[C@@H](NC(=O)CCCCCCN2CCN(c3ccc(Nc4ncc(Cl)c(Nc5ccccc5C(N)=O)n4)cc3)CC2)C(C)(C)C)cc1 [6-d]
- P.Value (compound/DMSO) [1, 10]: 0.0001847
- log2FC (compound/DMSO) [1, 10]: -0.9636
- kinase degradation ([2]; 1 μM): significant degradation of several kinases
- log2FC (compound/DMSO) ([2]; protein ARHGEF5;ARHGEF35, MCF7, 1 µM, set5): 0.09474
- log2FC (compound/DMSO) ([2]; protein NBPF19;NBPF15;NBPF8;NBPF10;NBPF3;NBPF11;NBPF26;NBPF14;NBPF1;NBPF12, MCF7, 1 µM, set5): -0.4722
- effect on cell viability (cytotoxicity) (Jurkat cells): particularly pronounced effects on cell viability
- IC50 (Jurkat cells): ~0.1 µM
- IC50 (VHL): 5.83 ± 1.43 µM

Compound: Cc1ncsc1-c1ccc(CNC(=O)[C@@H]2C[C@@H](O)CN2C(=O)[C@@H](NC(=O)CCOCCOCCNC(=O)c2cc(Nc3cc(C4CC4)[nH]n3)nc(Nc3ccc(CC#N)cc3)n2)C(C)(C)C)cc1 [5-a]
- kinase degradation ([2]; 1 μM): did not result in significant degradation of any kinase
- log2FC (compound/DMSO) [2, 11]: -0.2083
- log2FC (compound/DMSO) [2, 12]: -0.05063
- IC50 (VHL): 1.22 ± 0.665 µM

Compound: Cc1ncsc1-c1ccc(CNC(=O)[C@@H]2C[C@@H](O)CN2C(=O)[C@@H](NC(=O)CCOCCOCCOCCN2CCN(c3cc(Nc4cc(C5CC5)[nH]n4)nc(Nc4ccc(CC#N)cc4)n3)CC2)C(C)(C)C)cc1 [4-a]
- P.Value (compound/DMSO) [1, 3]: 0.002092
- log2FC (compound/DMSO) [1, 3]: 0.3781
- P.Value (compound/DMSO) [1, 4]: 0.1285
- log2FC (compound/DMSO) [1, 4]: 0.1013
- kinase degradation ([2]; 0.25 μM): Few kinases were degraded
- kinase degradation ([2]; 1 μM): significant degradation of several kinases
- kinase degradation ([2]; 2.5 μM): the number of degraded kinases was again lower
- log2FC (compound/DMSO) [2, 6]: 0.1164
- log2FC (compound/DMSO) [2, 7]: 0.132
- log2FC (compound/DMSO) [2, 11]: -0.3973
- log2FC (compound/DMSO) [2, 12]: -0.04751
- log2FC (compound/DMSO) [2, 8]: 0.003804
- log2FC (compound/DMSO) [2, 9]: 0.8375
- IC50 (VHL): 1.13 ± 0.132 µM

Compound: Cc1ncsc1-c1ccc(CNC(=O)[C@@H]2C[C@@H](O)CN2C(=O)[C@@H](NC(=O)CCOCCOCCOCCOCCN2CCN(c3ccc(Nc4ncc(Cl)c(Nc5ccccc5C(N)=O)n4)cc3)CC2)C(C)(C)C)cc1 [6-b]
- P.Value (compound/DMSO) [1, 3]: 0.00484
- log2FC (compound/DMSO) [1, 3]: -0.4049
- P.Value (compound/DMSO) [1, 4]: 0.5319
- log2FC (compound/DMSO) [1, 4]: -0.03906
- kinase degradation ([2]; 0.25 μM): Few kinases were degraded
- kinase degradation ([2]; 1 μM): significant degradation of several kinases
- kinase degradation ([2]; 2.5 μM): the number of degraded kinases was again lower
- log2FC (compound/DMSO) [2, 6]: -0.06617
- log2FC (compound/DMSO) [2, 7]: -0.2581
- log2FC (compound/DMSO) [2, 11]: -0.7206
- log2FC (compound/DMSO) [2, 12]: -0.1525
- log2FC (compound/DMSO) [2, 8]: 0.182
- log2FC (compound/DMSO) [2, 9]: 0.8692
- IC50 (Jurkat cells): 3.1 ± 0.8 µM
- IC50 (VHL): 1.41 ± 0.083 µM

Compound: CC(=O)N[C@H](C(=O)N1C[C@H](O)C[C@H]1C(=O)NCc1ccc(-c2scnc2C)cc1OCCOCCOCCOCCNC(=O)c1cc(Nc2cc(C3CC3)[nH]n2)nc(Nc2ccc(CC#N)cc2)n1)C(C)(C)C [5-b]
- P.Value (compound/DMSO) [1, 5]: 0.1541
- log2FC (compound/DMSO) [1, 5]: -0.1317
- kinase degradation ([2]; 1 μM): did not result in significant degradation of any kinase
- IC50 (Jurkat cells): ~18.7 µM
- IC50 (VHL): 0.972 ± 0.094 µM

Compound: CC(C)(C)OC(=O)NCCOCCOCCOCCOCCC(=O)N1CCN(c2cc(Nc3cc(C4CC4)[nH]n3)nc(Nc3ccc(CC#N)cc3)n2)CC1 [4-L]
- ΔTm at 20 µM (STK39A): 6.22 °C
- ΔTm at 20 µM (STK17A): 8.17 °C
- ΔTm at 20 µM (RIOK2A): 6.13 °C
